Test: Light-induced yellowing of IPBC-containing white test paint film after UV exposure
Assay type: physicochemical
Details: for effectiveness of the UV absorber in inhibiting degradation/yellowing of the IPBC: same test, assessment in words compared to the blank; for Δb value (difference in yellowing between blank paint and candidate paint sample): styrenated acrylic white house paint, IPBC 0.3%, formulation 20% IPBC / 40% UV absorber / 40% N-methyl pyrrolidone, paint film exposed to 340 nm UV radiation for four hours
Procedure: In the following examples a styrenated acrylic white house paint was used as the test medium to measure the effect of sunlight on the degradation of IPBC in various IPBC-containing compositions. The test paint composition was prepared by adding ingredients 2 through 6 slowly to a mixer containing water (ingredient 1). After mixing the composition for about 10 minutes, ingredients 7 through 11 were added, and mixing was continued until a smooth dispersion was obtained. Then the final two ingredients were added. Additional water can be added to obtain a desired viscosity.
In the following examples, a number of liquid formulations were prepared, each containing (1) 20% by weight IPBC (Troysan ® Polyphase® P-100), (2) 40% by weight of one of the UV absorbers indicated in each example which follows, and (3) 40% by weight of N-methyl pyrrolidone as a liquid vehicle. Each formulation was then incorporated into the white test paint by mixing in an amount sufficient to provide a test paint having IPBC present at a level of 0.3%. The paint formulations containing IPBC and UV absorbers were then applied on a Leneta chart with help of a 3 mil Bird type applicator. The paint film was allowed to dry for 10-15 minutes and then sprayed with a clear non-yellowing varnish (-3 mils), namely, Kamar Varnish 1312. The varnish was obtained from Krylon Products Group, The Specialty Division, Division of Sherwin-Williams Company, Ohio. The object of the varnish was to trap any of the chromophores formed during subsequent UV light exposure and to assure a short and reproducible test for accessing light-induced yellowing.
The paint film thus produced was exposed to 340 nm UV radiation for four hours and the yellowing was measured by Microflash 200D or Byk Handy Color measurement device. The difference in yellowing between a blank (the white test paint without fungicide) and the candidate paint sample, Δb, was recorded and used as the response for each test.

Row | Δb value (difference in yellowing between blank paint and candidate paint sample) | Compound | effectiveness of the UV absorber in inhibiting degradation/yellowing of the IPBC
1 | 3.3 | CC12CCC(C(=Cc3cccc(Cl)c3)C1=O)C2(C)C (stereo not drawn) [3-(3-chlorobenzylidene)camphor] | reasonably effective
2 | 1.3 | CCOc1ccc(C=C2C(=O)C3(C)CCC2C3(C)C)cc1 (stereo not drawn) [3-(4-ethoxybenzylidene)camphor] | very effective
3 | 2.4 | CC12CCC(C(=Cc3ccc4c(c3)OCCO4)C1=O)C2(C)C (stereo not drawn) [3-(3,4-dioxoethylenebenzylidene)camphor] | effective in inhibiting degradation of the IPBC
4 | 3.4 | Cc1ccccc1C=C1C(=O)C2(C)CCC1C2(C)C (stereo not drawn) [3-(2-methylbenzylidene)camphor] | reasonably effective
5 | 1.3 | COc1ccc(C=C2C(=O)C3(C)CCC2C3(C)C)cc1 (stereo not drawn) [3-(4-methoxybenzylidene)camphor] | very effective
6 | 2.8 | CC12CCC(C(=Cc3ccccc3)C1=O)C2(C)C (stereo not drawn) [benzylidenecamphor] | effective in inhibiting degradation of the IPBC
7 | 3.6 | CC12CCC(C(=Cc3ccc(Br)cc3)C1=O)C2(C)C (stereo not drawn) [3-(4-bromobenzylidene)camphor] | reasonably effective
8 | 2.7 | Cc1cccc(C=C2C(=O)C3(C)CCC2C3(C)C)c1 (stereo not drawn) [3-(3-methylbenzylidene)camphor] | effective in inhibiting degradation of the IPBC
9 | 2.5 | Cc1ccc(C=C2C(=O)C3(C)CCC2C3(C)C)cc1 (stereo not drawn) [3-(4-methylbenzylidene)camphor] | effective in inhibiting degradation of the IPBC
10 | 3.5 | CC(C)c1ccc(C=C2C(=O)C3(C)CCC2C3(C)C)cc1 (stereo not drawn) [3-(4-isopropylbenzylidene)camphor] | reasonably effective

Row | Compound | Δb value (difference in yellowing between blank paint and candidate paint sample) | effectiveness of the UV absorber in inhibiting degradation/yellowing of the IPBC
11 | CCCCNC(=O)OCC#CI [IPBC, 3-iodo-2-propynyl butyl carbamate, reference compound] | 7.1 | a significant yellow color develops
12 | CCCCOc1ccc(C=C2C(=O)C3(C)CCC2C3(C)C)cc1 (stereo not drawn) [3-(4-butoxybenzylidene)camphor] | 1.8 | very effective
